From PubChem BioAssay (NCI)
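GI50 = concentration required for 50% inhibition of growth. TGI is the concentration that stops growth completely.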

Tests used:
Assay in all cases: NCI-60 cell line screen, 384-well format
SW-620 colon = system: SW-620 colon
OVCAR-5 ovarian = system: OVCAR-5 ovarian
BT-549 breast = system: BT-549 breast
HOP-92 NSCLC = system: HOP-92 NSCLC
HL-60(TB) leukemia = system: HL-60(TB) leukemia
NCI-H322M lung = system: NCI-H322M lung
CCRF-CEM leukemia = system: CCRF-CEM leukemia
COLO 205 colon = system: COLO 205 colon
HT29 colon = system: HT29 colon
A498 renal = system: A498 renal
SK-MEL-5 melanoma = system: SK-MEL-5 melanoma
RXF 393 renal = system: RXF 393 renal
SF-539 CNS = system: SF-539 CNS
NCI-H460 NSCLC = system: NCI-H460 NSCLC
MALME-3M melanoma = system: MALME-3M melanoma
ACHN renal = system: ACHN renal
T-47D breast = system: T-47D breast
OVCAR-8 ovarian = system: OVCAR-8 ovarian
EKVX NSCLC = system: EKVX NSCLC
MDA-MB-468 breast = system: MDA-MB-468 breast
SN12C renal = system: SN12C renal
HS 578T breast = system: HS 578T breast
KM12 colon = system: KM12 colon
786-0 renal = system: 786-0 renal
UACC-257 melanoma = system: UACC-257 melanoma
SK-OV-3 ovarian = system: SK-OV-3 ovarian
OVCAR-4 ovarian = system: OVCAR-4 ovarian
PC-3 prostate = system: PC-3 prostate
MDA-MB-435 melanoma = system: MDA-MB-435 melanoma
U251 glioblastoma = system: U251 glioblastoma
UACC-62 melanoma = system: UACC-62 melanoma
SNB-19 CNS = system: SNB-19 CNS
A549 NSCLC = system: A549 NSCLC
M14 melanoma = system: M14 melanoma
NCI-H522 lung = system: NCI-H522 lung
CAKI-1 renal = system: CAKI-1 renal
HCT-15 colon = system: HCT-15 colon
NCI-H23 lung = system: NCI-H23 lung
HCC-2998 colon = system: HCC-2998 colon
SK-MEL-28 melanoma = system: SK-MEL-28 melanoma
MOLT-4 leukemia = system: MOLT-4 leukemia
MDA-MB-231 breast = system: MDA-MB-231 breast
NCI-H226 lung = system: NCI-H226 lung
RPMI-8226 leukemia = system: RPMI-8226 leukemia
TK-10 renal = system: TK-10 renal
HOP-62 NSCLC = system: HOP-62 NSCLC
IGROV1 ovarian = system: IGROV1 ovarian
MCF7 breast = system: MCF7 breast
SF-268 CNS = system: SF-268 CNS
OVCAR-3 ovarian = system: OVCAR-3 ovarian
NCI/ADR-RES ovarian = system: NCI/ADR-RES ovarian
SK-MEL-2 melanoma = system: SK-MEL-2 melanoma
SR leukemia = system: SR leukemia
SF-295 CNS = system: SF-295 CNS
DU-145 prostate = system: DU-145 prostate

In the case of `O=C(O)C(=O)CBr`, the GI50 (SW-620 colon) is reported as > 100 µM, the TGI (SW-620 colon) is reported as > 100 µM and the GI50 (OVCAR-5 ovarian) is reported as > 100 µM. The TGI (OVCAR-5 ovarian) was > 100 µM, the GI50 (BT-549 breast) was > 100 µM and the TGI (BT-549 breast) was > 100 µM. For the same compound, the GI50 (HOP-92 NSCLC) was > 100 µM, the TGI (HOP-92 NSCLC) was > 100 µM and the GI50 (HL-60(TB) leukemia) was 23.9 µM. For the same compound, the TGI (HL-60(TB) leukemia) was 45.3 µM, the GI50 (NCI-H322M lung) was > 100 µM and the TGI (NCI-H322M lung) was > 100 µM. For the same compound, the GI50 (CCRF-CEM leukemia) was 43.2 µM, the TGI (CCRF-CEM leukemia) was > 100 µM and the GI50 (COLO 205 colon) was > 100 µM. The TGI (COLO 205 colon) was > 100 µM, the GI50 (HT29 colon) was > 100 µM and the TGI (HT29 colon) was > 100 µM. The GI50 (A498 renal) was > 100 µM, the TGI (A498 renal) was > 100 µM and the GI50 (SK-MEL-5 melanoma) was > 100 µM. The TGI (SK-MEL-5 melanoma) was > 100 µM, the GI50 (RXF 393 renal) was 22.5 µM and the TGI (RXF 393 renal) was 57.1 µM. For the same compound, the GI50 (SF-539 CNS) was > 100 µM, the TGI (SF-539 CNS) was > 100 µM and the GI50 (NCI-H460 NSCLC) was > 100 µM. For the same compound, the TGI (NCI-H460 NSCLC) was > 100 µM, the GI50 (MALME-3M melanoma) was > 100 µM and the TGI (MALME-3M melanoma) was > 100 µM. The GI50 (ACHN renal) was > 100 µM, the TGI (ACHN renal) was > 100 µM and the GI50 (T-47D breast) was > 100 µM. The TGI (T-47D breast) was > 100 µM, the GI50 (OVCAR-8 ovarian) was > 100 µM and the TGI (OVCAR-8 ovarian) was > 100 µM. For the same compound, the GI50 (EKVX NSCLC) was > 100 µM, the TGI (EKVX NSCLC) was > 100 µM and the GI50 (MDA-MB-468 breast) was 24.7 µM. The TGI (MDA-MB-468 breast) was 56.8 µM, the GI50 (SN12C renal) was > 100 µM and the TGI (SN12C renal) was > 100 µM. For the same compound, the GI50 (HS 578T breast) was > 100 µM, the TGI (HS 578T breast) was > 100 µM and the GI50 (KM12 colon) was > 100 µM. For the same compound, the TGI (KM12 colon) was > 100 µM, the GI50 (786-0 renal) was > 100 µM and the TGI (786-0 renal) was > 100 µM. For the same compound, the GI50 (UACC-257 melanoma) was > 100 µM, the TGI (UACC-257 melanoma) was > 100 µM and the GI50 (SK-OV-3 ovarian) was > 100 µM. For the same compound, the TGI (SK-OV-3 ovarian) was > 100 µM, the GI50 (OVCAR-4 ovarian) was 32.3 µM and the TGI (OVCAR-4 ovarian) was > 100 µM. The GI50 (PC-3 prostate) was > 100 µM, the TGI (PC-3 prostate) was > 100 µM and the GI50 (MDA-MB-435 melanoma) was > 100 µM. For the same compound, the TGI (MDA-MB-435 melanoma) was > 100 µM, the GI50 (U251 glioblastoma) was > 100 µM and the TGI (U251 glioblastoma) was > 100 µM. For the same compound, the GI50 (UACC-62 melanoma) was > 100 µM, the TGI (UACC-62 melanoma) was > 100 µM and the GI50 (SNB-19 CNS) was > 100 µM. For the same compound, the TGI (SNB-19 CNS) was > 100 µM, the GI50 (A549 NSCLC) was > 100 µM and the TGI (A549 NSCLC) was > 100 µM. The GI50 (M14 melanoma) was > 100 µM, the TGI (M14 melanoma) was > 100 µM and the GI50 (NCI-H522 lung) was 23.5 µM. For the same compound, the TGI (NCI-H522 lung) was 47.8 µM, the GI50 (CAKI-1 renal) was > 100 µM and the TGI (CAKI-1 renal) was > 100 µM. The GI50 (HCT-15 colon) was > 100 µM, the TGI (HCT-15 colon) was > 100 µM and the GI50 (NCI-H23 lung) was 55.7 µM. The TGI (NCI-H23 lung) was > 100 µM, the GI50 (HCC-2998 colon) was > 100 µM and the TGI (HCC-2998 colon) was > 100 µM. The GI50 (SK-MEL-28 melanoma) was > 100 µM, the TGI (SK-MEL-28 melanoma) was > 100 µM and the GI50 (MOLT-4 leukemia) was > 100 µM. For the same compound, the TGI (MOLT-4 leukemia) was > 100 µM, the GI50 (MDA-MB-231 breast) was > 100 µM and the TGI (MDA-MB-231 breast) was > 100 µM. For the same compound, the GI50 (NCI-H226 lung) was > 100 µM, the TGI (NCI-H226 lung) was > 100 µM and the GI50 (RPMI-8226 leukemia) was > 100 µM. The TGI (RPMI-8226 leukemia) was > 100 µM, the GI50 (TK-10 renal) was > 100 µM and the TGI (TK-10 renal) was > 100 µM. For the same compound, the GI50 (HOP-62 NSCLC) was 34.7 µM, the TGI (HOP-62 NSCLC) was > 100 µM and the GI50 (IGROV1 ovarian) was > 100 µM. For the same compound, the TGI (IGROV1 ovarian) was > 100 µM, the GI50 (MCF7 breast) was > 100 µM and the TGI (MCF7 breast) was > 100 µM. For the same compound, the GI50 (SF-268 CNS) was > 100 µM, the TGI (SF-268 CNS) was > 100 µM and the GI50 (OVCAR-3 ovarian) was > 100 µM. The TGI (OVCAR-3 ovarian) was > 100 µM, the GI50 (NCI/ADR-RES ovarian) was > 100 µM and the TGI (NCI/ADR-RES ovarian) was > 100 µM. For the same compound, the GI50 (SK-MEL-2 melanoma) was > 100 µM, the TGI (SK-MEL-2 melanoma) was > 100 µM and the GI50 (SR leukemia) was > 100 µM. The TGI (SR leukemia) was > 100 µM, the GI50 (SF-295 CNS) was > 100 µM and the TGI (SF-295 CNS) was > 100 µM. For the same compound, the GI50 (DU-145 prostate) was > 100 µM and the TGI (DU-145 prostate) was > 100 µM.
